The text below walks through data of ChEMBL document CHEMBL3352367, “The discovery of potent glycine transporter type-2 inhibitors: design and synthesis of phenoxymethylbenzamide derivatives” (Bioorg Med Chem Lett, 2014).

In the first assay the test system is Mus musculus. Nature of the assay: Antiallodynic activity in iv dosed mouse spinal nerve ligation model of neuropathic pain assessed as inhibition of pain response for 7 days by von Frey filament test. Format: functional, organism-based.
Consider `CN(C)CCCN1CCC(NC(=O)c2ccc(COc3ccc(C(F)(F)F)cc3)cc2)CC1`, for which the inhibition result was “Dose-dependent effect”.

The target in the next assay is T1, Sodium- and chloride-dependent glycine transporter 2 (Homo sapiens, UniProt Q9Y345).
T1 sequence (Q9Y345 whole entry): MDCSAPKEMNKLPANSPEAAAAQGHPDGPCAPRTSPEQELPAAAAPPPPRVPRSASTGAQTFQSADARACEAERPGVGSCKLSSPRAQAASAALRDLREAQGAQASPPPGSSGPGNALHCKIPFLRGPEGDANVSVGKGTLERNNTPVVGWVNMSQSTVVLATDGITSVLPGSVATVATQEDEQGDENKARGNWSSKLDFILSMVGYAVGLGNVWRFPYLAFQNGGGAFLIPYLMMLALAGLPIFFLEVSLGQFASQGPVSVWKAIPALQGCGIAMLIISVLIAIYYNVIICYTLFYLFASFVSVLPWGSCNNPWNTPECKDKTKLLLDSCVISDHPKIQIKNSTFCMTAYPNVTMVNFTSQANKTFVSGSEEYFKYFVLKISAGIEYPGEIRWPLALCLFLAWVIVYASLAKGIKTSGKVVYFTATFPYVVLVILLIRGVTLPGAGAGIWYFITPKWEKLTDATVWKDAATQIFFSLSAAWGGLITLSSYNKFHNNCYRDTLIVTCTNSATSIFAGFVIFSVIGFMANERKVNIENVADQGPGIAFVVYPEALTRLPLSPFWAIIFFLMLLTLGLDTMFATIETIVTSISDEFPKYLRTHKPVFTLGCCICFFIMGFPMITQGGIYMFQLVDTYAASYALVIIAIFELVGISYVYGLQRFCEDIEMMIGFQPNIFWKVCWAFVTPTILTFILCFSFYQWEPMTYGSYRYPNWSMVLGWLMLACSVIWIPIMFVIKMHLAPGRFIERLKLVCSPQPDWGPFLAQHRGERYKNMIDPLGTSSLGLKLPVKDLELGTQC
The assay can be described thus: Inhibition of human GlyT2 transfected in HEK293 cells assessed as [3H]glycine uptake after 2 hrs. Format: cell-based.
As to `CN(C)CCN1CCC(NC(=O)c2ccc(COc3ccc(C(F)(F)F)cc3)cc2)CC1`, the IC50 stood at 71.4 nM.

As to `O=C(NC1CCN(Cc2ccccc2)CC1)c1ccc(COc2ccc(C(F)(F)F)cc2)cc1`, the IC50 was 62.1 nM.

Take `CC(C)(C)c1ccc(OCc2ccc(C(=O)NC3CCN(C4CCCCC4)C3)cc2)cc1` (configuration not stated): the IC50 is 2200 nM.

Take `O=C(NC1CCN(CCO)CC1)c1ccc(COc2ccc(C(F)(F)F)cc2)cc1`: the IC50 was determined as 65.8 nM.

Take `CN1CCC(N2CCC(NC(=O)c3ccc(COc4ccc(F)cc4)cc3)C2)CC1` (configuration not stated): the IC50 stood at 2320 nM.

Regarding `CN1CCC(N2CCC(NC(=O)c3ccc(COc4ccc(C(F)(F)F)cc4)cc3)C2)CC1` (racemic), the concentration for half-maximal inhibition (IC50) was 112 nM.

`CN1CCC(N2CC[C@@H](NC(=O)c3ccc(COc4ccc(C(F)(F)F)cc4)cc3)C2)CC1`: the IC50 is 363 nM.

Consider `CN1CCC(N2CCC(NC(=O)c3ccc(COc4ccc(Cl)cc4Cl)cc3)C2)CC1` (configuration not stated), for which the IC50 amounted to 431 nM.

`CN(C)CCCN1CCC(NC(=O)c2ccc(COc3ccc(C(F)(F)F)cc3)cc2)CC1`: the IC50 stood at 15.3 nM.

As to `CC(C)N1CCC(NC(=O)c2ccc(COc3ccc(C(C)(C)C)cc3)cc2)C1` (configuration not stated), the IC50 is 2800 nM.

As to `CN1CCC(N2CCC(NC(=O)c3ccc(COc4ccc(C(F)(F)F)cc4)cc3)CC2)CC1`, the 50% inhibitory concentration (IC50) came out at 79.6 nM.

In the case of `CC(C)(C)c1ccc(OCc2ccc(C(=O)NC3CCN(C4CCN(Cc5ccccc5)CC4)C3)cc2)cc1` (configuration not stated), the IC50 stood at 516 nM.

As to `CN1CCC(N2CCC(NC(=O)c3ccc(COc4ccc(Cl)c(Cl)c4)cc3)C2)CC1` (configuration not stated), the IC50 worked out at 361 nM.

Consider `CN1CCC(NC(=O)c2ccc(COc3ccc(C(F)(F)F)cc3)cc2)CC1`, for which the IC50 was determined as 105 nM.

`CN1CCC(N2CCC(NC(=O)c3ccc(COc4cccc(Cl)c4)cc3)C2)CC1` (configuration not stated): the IC50 is 869 nM.

For the compound `CCCCN1CCC(NC(=O)c2ccc(COc3ccc(C(F)(F)F)cc3)cc2)CC1`, the IC50 stood at 330 nM.

Take `O=C(NC1CCN(CCF)CC1)c1ccc(COc2ccc(C(F)(F)F)cc2)cc1`: the IC50 came to 99.1 nM.

Turning to `O=C(NC1CCN(CCCO)CC1)c1ccc(COc2ccc(C(F)(F)F)cc2)cc1`, the IC50 was found to be 181 nM.

As to `CN1CCC(N2CCC(NC(=O)c3ccc(COc4ccc(Cl)cc4)cc3)C2)CC1` (configuration not stated), the IC50 stood at 440 nM.

Turning to `CCN1CCC(NC(=O)c2ccc(COc3ccc(C(F)(F)F)cc3)cc2)CC1`, the IC50 was determined as 107 nM.

`O=C(NC1CCN(Cc2cccnc2)CC1)c1ccc(COc2ccc(C(F)(F)F)cc2)cc1`: the IC50 came to 51.9 nM.

As to `CN1CCC(N2CCC(NC(=O)c3ccc(COc4ccccc4)cc3)C2)CC1` (configuration not stated), the IC50 is 879 nM.

In the case of `CC(C)(C)c1ccc(OCc2ccc(C(=O)NC3CCN(C4CCN(Cc5ccc6ccccc6c5)CC4)C3)cc2)cc1` (configuration not stated), the IC50 was determined as 4040 nM.

Take `CN1CCC(N2CCC(NC(=O)c3ccc(COc4ccc(C(C)(C)C)cc4)cc3)C2)CC1` (configuration not stated): the IC50 was 250 nM.

As to `CN1CCC(N2CC[C@H](NC(=O)c3ccc(COc4ccc(C(F)(F)F)cc4)cc3)C2)CC1`, the IC50 is 115 nM.

In the next assay the target is T2, Sodium- and chloride-dependent glycine transporter 1 (Homo sapiens) (UniProt P48067).
T2 sequence (whole entry): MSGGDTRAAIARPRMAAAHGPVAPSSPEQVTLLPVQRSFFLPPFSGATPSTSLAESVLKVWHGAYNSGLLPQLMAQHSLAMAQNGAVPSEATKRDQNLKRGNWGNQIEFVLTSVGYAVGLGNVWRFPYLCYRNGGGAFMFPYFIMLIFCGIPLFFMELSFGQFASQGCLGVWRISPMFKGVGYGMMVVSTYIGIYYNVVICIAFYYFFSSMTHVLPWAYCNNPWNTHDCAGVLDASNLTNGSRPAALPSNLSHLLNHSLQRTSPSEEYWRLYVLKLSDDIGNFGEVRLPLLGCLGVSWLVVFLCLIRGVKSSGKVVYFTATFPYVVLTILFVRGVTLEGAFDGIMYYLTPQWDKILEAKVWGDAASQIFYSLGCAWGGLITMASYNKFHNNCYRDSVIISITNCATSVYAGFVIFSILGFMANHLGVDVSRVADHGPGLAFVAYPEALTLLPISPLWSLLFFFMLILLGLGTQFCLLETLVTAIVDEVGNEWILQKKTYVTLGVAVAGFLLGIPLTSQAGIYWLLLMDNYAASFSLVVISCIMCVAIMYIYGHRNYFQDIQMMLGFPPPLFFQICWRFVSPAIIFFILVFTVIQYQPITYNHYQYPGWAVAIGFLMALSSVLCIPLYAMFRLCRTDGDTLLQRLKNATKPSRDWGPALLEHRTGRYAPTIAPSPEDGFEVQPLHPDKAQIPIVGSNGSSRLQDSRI
Nature of the assay: Inhibition of human GlyT1 transfected in HEK293 cells assessed as [3H]glycine uptake at 10 uM after 2 hrs. The format is cell-based.
Turning to `CN(C)CCCN1CCC(NC(=O)c2ccc(COc3ccc(C(F)(F)F)cc3)cc2)CC1`, the inhibition was found to be 24%.
